Results: US6337333B1, “Method of treating autoimmune disease with fludarabine-5′-monophosphate” (priority 1992, dated 2002)

Experiments:
[1] = test system: Type II collagen-induced arthritis; conditions: cited from earlier work
[2] = test system: B lymphocytes; assay: B lymphocyte proliferative response to mitogen after 18 hr drug pretreatment (3H-thymidine); type: cell-based, human; conditions: 18 hr pretreatment, FIG. 1B
Description: (§1) In FIG. 1, freshly isolated PBMC were enriched for T and B lymphocytes using Nylon Wool (see Materials and Methods, Example A). The enriched lymphocyte subpopulations were then incubated for 18 hrs at 37° C. with various concentrations of drug. At the end of the pretreatment period, the cell samples were washed, adjusted to 2×10^5 viable cells/ml, and cultured at 1×10^4/well in flat (B cells) or round (T cells) bottomed 96 well microtiter plates in […]. The T cells were incubated for 3 days with PHA-P ([…]) or Con A (5 μg/ml) and the B cells were cultured for 6 days with either PWM (2 μg/ml) or SAC ({fraction (1/60,000)}). 1 μCi of ^3H-thymidine was added per well during the last 18 hr of culture. The wells were then harvested onto glass fiber filters, and counted in 7 ml of Cytoscint (ICN) on the LKB 1219 Rackbeta scintillation counter. The results are expressed as the mean cpm of triplicate wells.
(§2) Peripheral blood mononuclear cells obtained from normal donors as packed leukocyte preparations were enriched for T and B lymphocytes and pretreated with drug for 18 hrs prior to mitogen stimulation.
(§3) Peripheral blood mononuclear cells enriched for either T or B lymphocytes were incubated for 18 hrs in complete S-10 medium at 37° C. in 12×75 mm culture tubes at 5×10^5 cells/ml. The cells were then washed in S-10 and cultured in triplicate for either 3 (T lymphocytes) or 6 (B lymphocytes) days at 2.5×10^4/well in round bottom 96-well microtiter plates in S-10 medium at 37° C. and a 5% CO2 humidified atmosphere. The wells were pulsed with 1 μCi 3H-thymidine for the last 18 hr of culture, harvested onto glass fiber filters, and counted with 7 ml Cytoscint with a LKB Rackbeta scintillation counter. The results are reported as “percent Suppression”:
(§4) % Suppression={1−(mean cpm exp./mean cpm stim control)}×100

[3] = test system: T lymphocytes; assay: T lymphocyte proliferative response to mitogen after 18 hr drug pretreatment (3H-thymidine); type: cell-based, human; conditions: 18 hr pretreatment, FIG. 1A
Description: as §1, §2, §3, §4

[4] = test system: IgM-RF and IgM production; conditions: therapeutic concentrations of drug; cited from earlier work

Question: For CC(C)(S)[C@@H](N)C(=O)O [D-penicillamine], which effect on disease [1] is on record?
Answer: early onset of the disease

Question: Which “suppression of B lymphocyte's ability to respond to mitogen” value [2] does the source give for Nc1nc(F)nc2c1ncn2[C@@H]1O[C@H](CO)[C@@H](O)[C@@H]1O [F] here?
Answer: suppress

Question: And the “suppression of T lymphocyte's ability to respond to mitogen” value [3]?
Answer: suppress

Question: For O=C([O-])c1ccccc1Nc1cc(Cl)ccc1C(=O)[O-].[Na+].[Na+] [lobenzarit, disodium 4-chloro-2,2′-iminodibenzoate], which “production of IgM” value [4] is on record?
Answer: suppressed

Question: What about the “production of IgM-RF” value [4] of the same compound?
Answer: suppressed
